Results as given in ChEMBL document CHEMBL4715742, “Design, synthesis and cytotoxic activities of novel 2,5-diketopiperazine derivatives” (Eur J Med Chem, 2016).

How the values were obtained:
Format in all cases: functional, cell-based
[1] = tested on: U-937; assay: Cytotoxicity against human U-937 cells assessed as reduction in cell viability measured after 72 hrs by CCK8 assay
[2] = tested on: K562; assay: Cytotoxicity against human K562 cells assessed as reduction in cell viability measured after 72 hrs by CCK8 assay
[3] = tested on: HL-60; assay: Cytotoxicity against human HL-60 cells assessed as reduction in cell viability measured after 72 hrs by CCK8 assay
[4] = tested on: A549; assay: Cytotoxicity against human A549 cells assessed as reduction in cell viability measured after 72 hrs by CCK8 assay
[5] = tested on: MCF7; assay: Cytotoxicity against human MCF7 cells assessed as reduction in cell viability measured after 72 hrs by CCK8 assay
[6] = tested on: HeLa; assay: Cytotoxicity against human HeLa cells assessed as reduction in cell viability measured after 72 hrs by CCK8 assay
[7] = tested on: DU-145; assay: Cytotoxicity against human DU-145 cells assessed as reduction in cell viability measured after 72 hrs by CCK8 assay
[8] = tested on: HT-29; assay: Cytotoxicity against human HT-29 cells assessed as reduction in cell viability measured after 72 hrs by CCK8 assay
[9] = Homo sapiens, U-937, 72 h, read-out: IC50
[10] = Homo sapiens, K562, 72 h, read-out: IC50
[11] = Homo sapiens, HL-60, 72 h, read-out: IC50
[12] = Homo sapiens, A549, 72 h, read-out: IC50
[13] = Homo sapiens, MCF7, 72 h, read-out: IC50
[14] = Homo sapiens, HeLa, 72 h, read-out: IC50
[15] = Homo sapiens, DU-145, 72 h, read-out: IC50
[16] = Homo sapiens, HT-29, 72 h, read-out: IC50

Compound | IC50 [1, 9] [µM] | IC50 [2, 10] [µM] | IC50 [3, 11] [µM] | IC50 [4, 12] [µM] | IC50 [5, 13] [µM] | IC50 [6, 14] [µM] | IC50 [7, 15] [µM] | IC50 [8, 16] [µM] | IC50 ([1]; u-937) | IC50 ([2]; k562) | IC50 ([3]; hl-60) | IC50 ([4]; a549) | IC50 ([5]; mcf7) | IC50 ([6]; hela) | IC50 ([7]; du-145) | IC50 ([8]; ht-29)
C=CCn1c(=O)/c(=C/CCCCCCC)[nH]c(=O)/c1=C/c1ccc(OC)cc1 | 1.1 | 1.5 | 28.2 | 2.9 | 2.8 | 2.3 | 2.9 | 2.2 | – | – | – | – | – | – | – | –
C=CCn1c(=O)/c(=C/CCCC)[nH]c(=O)/c1=C/c1cccc(OC)c1 | – | – | – | – | – | – | – | – | Not Active | Not Active | Not Active | Not Active | Not Active | Not Active | Not Active | Not Active
C=CCn1c(=O)/c(=C/CCCCCCCCCCCCCCC)[nH]c(=O)/c1=C/c1cccc(OC)c1 | – | – | – | – | – | – | – | – | Not Active | Not Active | Not Active | Not Active | Not Active | Not Active | Not Active | Not Active
C=CCn1c(=O)/c(=C/CCC)[nH]c(=O)/c1=C/c1cccc(OC)c1 | – | – | – | – | – | – | – | – | Not Active | Not Active | Not Active | Not Active | Not Active | Not Active | Not Active | Not Active
C=CCn1c(=O)/c(=C/CCCCCCC)[nH]c(=O)/c1=C/c1ccccc1OC | – | – | – | – | – | – | – | – | Not Active | Not Active | Not Active | Not Active | Not Active | Not Active | Not Active | Not Active
C=CCn1c(=O)/c(=C/CCCCC)[nH]c(=O)/c1=C/c1ccccc1OC | 1.9 | 2.6 | 13.4 | 8.7 | 6.9 | 5.7 | 10.7 | 7.4 | – | – | – | – | – | – | – | –
C=CCn1c(=O)/c(=C/CCCCCCCCCCC)[nH]c(=O)/c1=C/c1cccc(OC)c1 | – | – | – | – | – | – | – | – | Not Active | Not Active | Not Active | Not Active | Not Active | Not Active | Not Active | Not Active
Cn1c(=O)/c(=C/c2ccccc2)[nH]c(=O)/c1=C/c1ccccc1 | 1.4 | 2.9 | – | 7.8 | 5.1 | 4.9 | 9.4 | 6.5 | – | – | Not Active | – | – | – | – | –
C=CCn1c(=O)/c(=C/CCC)[nH]c(=O)/c1=C/c1ccccc1OC | 6.4 | 8.6 | 20.4 | – | 11.1 | 21.4 | – | 28.9 | – | – | – | Not Active | – | – | Not Active | –
C=CCn1c(=O)/c(=C/CC)[nH]c(=O)/c1=C/c1ccccc1OC | – | – | – | – | – | – | – | – | Not Active | Not Active | Not Active | Not Active | Not Active | Not Active | Not Active | Not Active
C=CCn1c(=O)/c(=C/CCCCCC)[nH]c(=O)/c1=C/c1cccc(OC)c1 | – | – | – | – | – | – | – | – | Not Active | Not Active | Not Active | Not Active | Not Active | Not Active | Not Active | Not Active
C=CCn1c(=O)/c(=C/CCCCCCCCCC)[nH]c(=O)/c1=C/c1ccc(OC)cc1 | – | – | – | – | – | – | – | – | Not Active | Not Active | Not Active | Not Active | Not Active | Not Active | Not Active | Not Active
C=CCn1c(=O)/c(=C/CCCCCCC)[nH]c(=O)/c1=C/c1cccc(OC)c1 | – | – | – | – | – | – | – | – | Not Active | Not Active | Not Active | Not Active | Not Active | Not Active | Not Active | Not Active
C=CCn1c(=O)/c(=C/CCCCCC)[nH]c(=O)/c1=C/c1ccccc1OC | 2.6 | 3.6 | 10.6 | 13.9 | 9.3 | 7 | 11.2 | 9.8 | – | – | – | – | – | – | – | –
